Assay results as given in PubChem BioAssay (NCI).
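1) Cells in 96-well plates. 2) Compound, 48 h, 5 concentrations. 3) Linear interpolation between surrounding doses. 4) Unreached endpoint = highest concentration. The concentration for 50% growth inhibition is given as GI50. TGI: total growth inhibition.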

What was measured:
Test in all cases: NCI-60 cell line screen, 48 h
ACHN renal = tested on: ACHN renal
CCRF-CEM leukemia = tested on: CCRF-CEM leukemia
HL-60(TB) leukemia = tested on: HL-60(TB) leukemia
HT29 colon = tested on: HT29 colon
KM12 colon = tested on: KM12 colon
OVCAR-4 ovarian = tested on: OVCAR-4 ovarian
SF-539 CNS = tested on: SF-539 CNS
SK-MEL-2 melanoma = tested on: SK-MEL-2 melanoma
SNB-19 CNS = tested on: SNB-19 CNS
TK-10 renal = tested on: TK-10 renal

Compound | TGI (ACHN renal) [µM] | TGI (CCRF-CEM leukemia) [µM] | TGI (HL-60(TB) leukemia) [µM] | TGI (HT29 colon) [µM] | TGI (KM12 colon) [µM] | TGI (OVCAR-4 ovarian) [µM] | TGI (SF-539 CNS) [µM] | TGI (SK-MEL-2 melanoma) [µM] | TGI (SNB-19 CNS) [µM] | TGI (TK-10 renal) [µM] | GI50 (CCRF-CEM leukemia) [µM] | GI50 (HT29 colon) [µM] | GI50 (OVCAR-4 ovarian) [µM] | GI50 (SF-539 CNS) [µM] | GI50 (SK-MEL-2 melanoma) [µM] | GI50 (SNB-19 CNS) [µM] | GI50 (ACHN renal) [µM] | GI50 (HL-60(TB) leukemia) [µM] | GI50 (KM12 colon) [µM] | GI50 (TK-10 renal) [µM]
Cc1ccc2ccc3ccc(C)nc3c2n1 | > 100 | > 100 | > 100 | > 100 | > 100 | > 100 | > 100 | > 100 | > 100 | > 100 | – | – | – | – | – | – | – | – | – | –
Nc1cccc2c1C1=NNC(=O)CC1C2 (stereo not drawn) | – | > 100 | > 100 | > 22.9 | > 100 | > 100 | > 100 | > 100 | > 100 | – | – | – | – | – | – | – | – | – | – | –
CNCCCNC1(c2cc3ccccc3s2)CCCCC1 | 26.9 | 4.51 | 18.9 | 7.94 | 16.3 | 27 | 7.37 | 10.9 | 24.8 | 19.4 | – | – | – | – | – | – | – | – | – | –
N#Cc1c(-c2cccc(Cl)c2)cc(-c2ccc(Cl)cc2)nc1N | 41.6 | 48.4 | 77.2 | 44 | 80.7 | 33.1 | 34.3 | 36.7 | 25.5 | 52.2 | – | – | – | – | – | – | – | – | – | –
CC(C)(O)CO/N=C1\C(c2c(O)[nH]c3ccccc23)=Nc2ccccc21 | 8.01 | 6.54 | 3.1 | > 35 | 4.71 | 21.9 | 10.2 | 3.2 | > 52.6 | 8.68 | – | – | – | – | – | – | – | – | – | –
Cc1c2cc[n+](C)cc2c(C)c2c1[nH]c1ccc(Cl)cc12 | 61.7 | 26.5 | 21.5 | 44.9 | 35.5 | 26.5 | 2.32 | 9.6 | 1.21 | 61.3 | – | – | – | – | – | – | – | – | – | –
CC1=NN(c2cccc(Cl)c2)C(=N/c2nc3ccccc3s2)/C1=C\c1cccs1 | > 100 | 47.1 | 30.6 | > 100 | > 100 | > 100 | > 100 | 65.4 | – | > 100 | – | – | – | – | – | – | – | – | – | –
C[C@H](N[C@H]1CCC[C@]1(O)C#Cc1ccc2c(c1)OCO2)c1ccccc1 | > 25 | > 25 | > 25 | > 25 | > 25 | > 25 | – | > 25 | > 25 | > 25 | – | – | – | – | – | – | – | – | – | –
C[C@@H](CO)C1=CC(C#C[Si](C)(C)C)N(C(=O)Oc2ccccc2)c2ccccc21 (stereo partly drawn) | 42.1 | 72.6 | 57.2 | 35.2 | 34.1 | 27 | 41.6 | 35.3 | 82 | 79.5 | – | – | – | – | – | – | – | – | – | –
c1ccc2sc(C3(N4CCC5(CC4)OCCO5)CCCCC3)cc2c1 | > 100 | > 100 | 54.9 | 86.4 | > 100 | > 100 | > 100 | – | > 100 | > 100 | – | – | – | – | – | – | – | – | – | –
C=Cc1cc(OC)c2c(c1)c(=O)oc1c2cc(OC)c2c(O)ccc(C3OC(C)C(O)C(C)(O)C3O)c21 (stereo not drawn) | – | – | 0.0256 | 0.666 | – | – | – | – | 0.733 | 0.00855 | 1.29e-05 | 0.000815 | 0.00215 | 0.000153 | 0.00134 | 0.00151 | – | – | – | –
Cc1c(NC(=O)c2cc([N+](=O)[O-])cc([N+](=O)[O-])c2)c(=O)n(-c2ccccc2)n1C | – | > 100 | > 100 | > 100 | > 100 | > 100 | > 100 | > 100 | > 100 | > 100 | – | – | – | – | – | – | – | – | – | –
O=C(Nc1cccc([N+](=O)[O-])c1)C(=O)C(C(=O)c1ccccc1F)C1OC(=O)C2C=CC=CC21 (stereo not drawn) | > 100 | > 100 | 64 | > 100 | > 100 | > 100 | 67.5 | > 100 | > 100 | > 100 | – | – | – | – | – | – | – | – | – | –
N#CCCOCN(CO)c1nc(N(CO)COCCC#N)nc(N(CO)COCCC#N)n1 | 76.1 | 58 | 41.6 | 69.9 | > 100 | 64 | 8.63 | 38.6 | > 100 | 91.2 | – | – | – | – | – | – | – | – | – | –
O=C(Nc1sccc1S(=O)(=O)c1ccc(Cl)cc1)c1ccccc1 | > 100 | > 100 | > 100 | > 100 | > 100 | > 100 | > 100 | > 100 | > 100 | > 100 | – | – | – | – | – | – | – | – | – | –
O=C1/C(=C/c2ccc(Cl)cc2)N=C(c2ccccc2)N1c1nc2c(Cl)cc(Cl)cc2s1 | > 100 | 20.7 | 43.1 | 55.7 | > 100 | > 100 | 46.1 | 55.5 | > 100 | > 100 | – | – | – | – | – | – | – | – | – | –
COc1cc2c(cc1OC)C1Cc3cc(OC)c(OC)cc3C(C2)O1 | > 100 | > 100 | – | > 100 | > 100 | > 100 | > 100 | > 100 | > 100 | > 100 | – | – | – | – | – | – | – | – | – | –
O=C(NCCNc1nccc(-c2c(-c3cccc(O)c3)nc3sccn23)n1)Nc1cccc(C(F)(F)F)c1 | 45.7 | 13.7 | 6.03 | 10.8 | 6.98 | 14.2 | 36.9 | 6.07 | 36.2 | 11.1 | 3.25 | 3.45 | 3.97 | 13.1 | 2.8 | 5.09 | 5.79 | 2.85 | 2.78 | 3.66
CC(=O)OC[C@@]1(C)[C@@H]2[C@@H]3[C@@]4(CO[C@]3(C)C(=O)[C@@]3(O)C[C@H](C)[C@H](OC(C)=O)[C@@H]3[C@H]4OC(C)=O)[C@H](OC(=O)c3ccccc3)C[C@@H]21 | > 100 | > 100 | > 100 | > 100 | > 100 | > 100 | > 100 | > 100 | > 100 | > 100 | – | – | – | – | – | – | – | – | – | –
CNS(=O)(=O)c1ccc2[nH]c(O)c(C3=Nc4ccccc4C3=O)c2c1 | > 100 | > 100 | > 100 | > 100 | – | – | – | > 100 | > 100 | > 100 | – | – | – | – | – | – | – | – | – | –
COc1cc(NC(=O)CSc2nc3ccccc3c(=O)n2CCc2ccccc2)cc(OC)c1OC | – | > 100 | > 100 | – | – | – | – | 6.94 | 17.5 | 3.81 | > 100 | – | – | – | 2.32 | 3.49 | – | > 100 | – | 1.81
CCCC1=C(C(=O)OCC)C(c2ccccc2OC)C(C#N)=C(N)O1 (stereo not drawn) | > 100 | 42.1 | > 100 | > 100 | > 100 | > 100 | > 100 | > 100 | > 100 | > 100 | 19.4 | 34.4 | 65.4 | 39.8 | > 100 | > 100 | 48.1 | 33.7 | 21.1 | 46.1
NC(=O)Nc1ccc(C(=O)NCCCNC(=O)c2ccc(NC(N)=O)cc2)cc1 | > 100 | > 100 | > 100 | > 100 | > 100 | > 100 | > 100 | > 100 | > 100 | > 100 | – | – | – | – | – | – | – | – | – | –
CSc1ccc(-c2cc(-c3nc4ccccc4[nH]3)nc(N)c2C#N)cc1 | > 100 | 80.1 | 48.9 | 56.7 | 71.2 | – | 86 | 34.2 | > 100 | 99.7 | – | – | – | – | – | – | – | – | – | –
O=C1C(c2c(O)[nH]c3ccccc23)=Nc2ccc(Br)cc21 | 77 | > 100 | > 100 | > 100 | > 100 | 69.5 | – | 93.9 | 76.2 | 65.2 | – | – | – | – | – | – | – | – | – | –
Cc1nc2c(O)cc3c4c(n(Cc5ccccc5)c3c2nc1C)C(=O)CCC4 | > 100 | > 100 | > 100 | > 100 | > 100 | 59.3 | 48.1 | 50.1 | > 100 | > 100 | – | – | – | – | – | – | – | – | – | –
CC(=O)N1CC(=O)NC1=S | > 100 | > 100 | > 100 | > 100 | > 100 | > 100 | > 100 | > 100 | > 100 | > 100 | – | – | – | – | – | – | – | – | – | –
O=C1C(=c2cc3c(c4ccccc24)=NC24CCCCC2C(c2ccccc2)C=C(c2ccccc2)N34)C(=O)c2ccccc21 (stereo not drawn) | > 100 | > 100 | > 100 | > 100 | > 100 | 68.3 | > 100 | > 100 | > 100 | > 100 | – | – | – | – | – | – | – | – | – | –
